# According to US10124004B2, “Pyrido[3,4-d]pyrimidine derivative and pharmaceutically acceptable salt thereof” (Teijin Pharma Limited, priority 2015, dated 2018):
# Where two headings read alike, the source gives them in different places.
# Key:
# CDK4/cyclin D3 = target: T1, CDK4/cyclin D3 (Homo sapiens, UniProt P11802); test: Human CDK4/cyclin D3 inhibitory activity (QS S Assist CDK4/Cyclin D3_FP Kit, IMAP fluorescence polarization); format: biochemical
# T1 construct: purchased Carna Biosciences, Inc. QS S Assist CDK4/Cyclin D3_FP Kit
# Outline: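 IMAP fluorescence polarization kit: CDK4/cyclin D3 at 12.5-25 ng/well with kit ATP/substrate/metal mix in 20 mM HEPES pH 7.4, 0.01% Tween20, 2 mM DTT, 45 min at room temperature. FP read at 485/535 nm after 30 min binding; IC50 from dose-response fit of percent inhibition versus enzyme and no-enzyme controls.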
# CDK2/cyclin A2 = target: T2, CDK2/cyclin A2 (Homo sapiens, UniProt P24941); test: Human CDK2/cyclin A2 inhibitory activity (QS S Assist CDK2/Cyclin A2_FP Kit, IMAP fluorescence polarization); format: biochemical
# T2 construct: purchased Carna Biosciences, Inc. QS S Assist CDK2/Cyclin A2_FP Kit
# Outline: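 Kinase activity read as fluorescence polarization (485/535 nm) after phosphorylated fluorescent substrate binds IMAP reagent (30 min, RT, dark). Enzyme (2.5 ng/well) reacted 60 min at RT with ATP/substrate/metal in HEPES pH 7.4 buffer with Tween 20 and DTT; no-enzyme wells define 0% activity; IC50 by curve fit.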
# [1] = Human CDK4/cyclin D3 inhibitory activity, read-out: CDK4 Activity symbol
# [2] = Human CDK2/cyclin A2 inhibitory activity, read-out: CDK2 Activity symbol
# [3] = 50% inhibitory concentration against CDK4/cyclin D3, given as class symbol
# [4] = 50% inhibitory concentration against CDK2/cyclin A2, given as class symbol
# T1 sequence (P11802 whole entry): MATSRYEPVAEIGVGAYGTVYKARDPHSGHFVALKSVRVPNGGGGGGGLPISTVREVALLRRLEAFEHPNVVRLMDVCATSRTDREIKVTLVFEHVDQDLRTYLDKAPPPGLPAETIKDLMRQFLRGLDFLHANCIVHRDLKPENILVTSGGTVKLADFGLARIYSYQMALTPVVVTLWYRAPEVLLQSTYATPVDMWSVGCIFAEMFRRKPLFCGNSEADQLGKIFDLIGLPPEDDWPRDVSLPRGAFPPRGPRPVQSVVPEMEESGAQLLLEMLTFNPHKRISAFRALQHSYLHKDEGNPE
# T1 sequence (P30281 whole entry partner): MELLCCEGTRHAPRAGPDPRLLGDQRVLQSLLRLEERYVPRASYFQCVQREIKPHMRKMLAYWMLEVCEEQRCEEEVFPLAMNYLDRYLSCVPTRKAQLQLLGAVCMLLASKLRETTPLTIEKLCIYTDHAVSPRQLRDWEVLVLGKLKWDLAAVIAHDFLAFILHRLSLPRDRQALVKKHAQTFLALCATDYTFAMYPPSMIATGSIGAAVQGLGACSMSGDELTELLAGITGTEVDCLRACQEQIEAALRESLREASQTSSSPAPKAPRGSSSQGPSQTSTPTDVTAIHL
SMILES,IC50 (CDK4/cyclin D3; [1]) [nM],IC50 (CDK2/cyclin A2; [2]) [nM],IC50 (CDK4/cyclin D3; [3]) [nM],IC50 (CDK2/cyclin A2; [4]) [nM]
"CC(C)Nc1nc(C(C)O)cc2cnc(Nc3ccc(N4CCCC(O)C4)nn3)nc12 (single isomer, unassigned) [Compound 581]",< 10,≥ 100,–,–
CC(C)Nc1nc([C@@H](C)O)cc2cnc(Nc3ccc(OCCNS(C)(=O)=O)cn3)nc12 [Compound 867],–,–,< 10,≥ 100
CC(C)Nc1nc([C@@H](C)O)cc2cnc(Nc3ccc(N4CC(O)C4)nn3)nc12 [Compound 666],–,–,< 10,≥ 100
CC(C)Nc1nc([C@@H](C)O)cc2cnc(Nc3ccc(N4CCN(CC(C)(C)O)CC4=O)cn3)nc12 [Compound 627],–,–,< 10,≥ 100
CO[C@H](C)c1cc2cnc(Nc3ccc(CN4CCNCC4=O)cn3)nc2c(NC(C)C)n1 [Compound 237],10 to 100,≥ 100,–,–
CCNc1nc([C@@H](C)O)cc2cnc(Nc3ccc(CN4CCCC(O)C4)cn3)nc12 (stereo partly shown) [Compound 1080],–,–,< 10,≥ 100
CC(C)Nc1nc([C@@H](C)O)cc2cnc(Nc3ccc(O[C@@H]4CCNC4)cn3)nc12 [Compound 572],< 10,≥ 100,–,–
C[C@@H](O)c1cc2cnc(Nc3ccc(N4CCNCC4=O)cn3)nc2c(N(C)[C@H]2CCCOC2)n1 [Compound 872],–,–,10 to 100,≥ 100
CC(C)Nc1nc([C@@H](C)O)cc2cnc(Nc3ccc(N4CCN(C(C)(C)C(=O)O)CC4)nn3)nc12 [Compound 657],–,–,< 10,≥ 100
CC(C)Nc1nc([C@@H](C)O)cc2cnc(Nc3ccc(N4CC(C)(C)NCC4=O)cn3)nc12 [Compound 923],–,–,< 10,≥ 100
COC1CCC(Nc2nc([C@@H](C)OC)cc3cnc(Nc4ccc(N5CCNCC5)nn4)nc23)CC1 (stereo partly shown) [Compound 711],–,–,< 10,≥ 100
CO[C@H](C)c1cc2cnc(Nc3ccc(N4CCNC[C@H]4C)nn3)nc2c(NC(C)C)n1 [Compound 372],< 10,≥ 100,–,–
CCC(OC)c1cc2cnc(Nc3ccc(N4CCNCC4)nn3)nc2c(NC(C)C)n1 (stereo not shown) [Compound 1068],–,–,≥ 100,≥ 100
CO[C@H](C)c1cc2cnc(Nc3ccc(C(=O)N4CCNCC4)cn3)nc2c(NC(C)C)n1 [Compound 389],< 10,10 to 100,–,–
OCCN1CCN(Cc2ccc(Nc3ncc4cc(C5CCOC5)nc(N[C@H]5CCCOC5)c4n3)nc2)CC1 (stereo partly shown) [Compound 1011],–,–,< 10,≥ 100
C[C@@H](O)c1cc2cnc(Nc3ccc(N4CCNCC4)nn3)nc2c(NC2CCCCC2C(=O)O)n1 (stereo partly shown) [Compound 308],≥ 100,≥ 100,–,–
CC(C)Nc1nc([C@@H](C)O)cc2cnc(Nc3ccc(O[C@@H]4CCN(CCO)C4)cn3)nc12 [Compound 1058],–,–,< 10,≥ 100
COC1CCN(c2ccc(Nc3ncc4cc([C@@H](C)O)nc(N[C@H]5CCCOC5)c4n3)nn2)CC1 [Compound 762],–,–,< 10,≥ 100
CC(C)Nc1nc([C@@H](C)O)cc2cnc(Nc3ccc(N4C(=O)CN5CCC4CC5)cn3)nc12 [Compound 623],< 10,10 to 100,–,–
FC(F)c1cc2cnc(Nc3ccc(N4CCNCC4)cn3)nc2c(N[C@H]2CCCNC2)n1 [Compound 2],< 10,10 to 100,–,–
COCC(C)(C)Nc1nc([C@@H](C)O)cc2cnc(Nc3ccc(CN4CCc5nc(C)[nH]c5C4)cn3)nc12 [Compound 296],≥ 100,≥ 100,–,–
CO[C@H](C)c1cc2cnc(Nc3ccc(OCCN(C)C)cn3)nc2c(NC(C)C)n1 [Compound 227],< 10,≥ 100,–,–
CCNc1nc([C@@H](C)OC)cc2cnc(Nc3ccc4c(n3)CCN(C(=O)CO)C4)nc12 [Compound 1112],–,–,10 to 100,≥ 100
CC(C)CNc1nc([C@@H](C)O)cc2cnc(Nc3ccc(CN4CCN(CCO)CC4)cn3)nc12 [Compound 846],–,–,< 10,≥ 100
C[C@@H](O)c1cc2cnc(Nc3ccc(N4CCNCC4)nn3)nc2c(NCC2CCOCC2)n1 [Compound 313],< 10,≥ 100,–,–

SMILES,IC50 (CDK4/cyclin D3; [1]) [nM],IC50 (CDK2/cyclin A2; [2]) [nM],IC50 (CDK4/cyclin D3; [3]) [nM],IC50 (CDK2/cyclin A2; [4]) [nM]
C[C@@H](O)c1cc2cnc(Nc3ccc(CN4CCNCC4)cn3)nc2c(N[C@@H]2CCOC2)n1 [Compound 259],< 10,≥ 100,–,–
CCCNc1nc([C@@H](C)O)cc2cnc(Nc3ccc(O[C@@H]4CCN(CCO)C4)cn3)nc12 [Compound 1059],–,–,< 10,≥ 100
CO[C@@H](C)c1cc2cnc(Nc3ccc(N4CCNCC4)cn3)nc2c(NC(C)C)n1 [Compound 38],< 10,≥ 100,–,–
COC1CCC(Nc2nc([C@@H](C)O)cc3cnc(Nc4ccc(OCCN(C)C)cn4)nc23)CC1 (stereo partly shown) [Compound 628],–,–,< 10,≥ 100
CC(C)Nc1nc([C@@H](C)O)cc2cnc(Nc3ccc(C(=O)N4CC[C@@H](N(C)C)C4)cn3)nc12 [Compound 1163],–,–,< 10,10 to 100
"CC(C)Nc1nc(C(C)O)cc2cnc(Nc3ccc(N4CCNC(C(F)(F)F)C4)nn3)nc12 (single isomer, unassigned) [Compound 989]",–,–,< 10,≥ 100
CC(C)Nc1nc(C2CCCO2)cc2cnc(Nc3ccc(N4CCNCC4=O)cn3)nc12 (stereo not shown) [Compound 670],–,–,≥ 100,≥ 100
CC(C)Nc1nc([C@@H](C)O)cc2cnc(Nc3ccc(N4CC[C@@H](O)C4)nn3)nc12 [Compound 661],–,–,< 10,≥ 100
CC(C)Nc1nc(C(C)O)cc2cnc(Nc3ccc(OC4CCCC4N(C)C)cn3)nc12 (stereo not shown) [Compound 742],–,–,< 10,≥ 100
CC(C)Nc1nc(C(F)F)cc2cnc(Nc3ccc(-n4cccn4)cn3)nc12 [Compound 210],10 to 100,≥ 100,–,–
Cc1c([C@@H](C)O)nc(NC(C)C)c2nc(Nc3ccc(N4CCNCC4)cn3)ncc12 [Compound 66],< 10,≥ 100,–,–
CC(C)Nc1nc(C(F)F)cc2cnc(Nc3ccc(CN4CCC(C(C)(C)O)CC4)cn3)nc12 [Compound 118],< 10,10 to 100,–,–
CC(C)Nc1nc(C(C)O)cc2cnc(Nc3ccc(N4CCC(N)C(F)C4)nn3)nc12 (stereo not shown) [Compound 619],< 10,≥ 100,–,–
CC(C)Nc1nc([C@@H](C)O)cc2cnc(Nc3ccc(N4CC5(CC(N)C5)C4)nn3)nc12 [Compound 576],< 10,≥ 100,–,–
CC(C)Nc1nc(C(F)F)cc2cnc(Nc3ccc(N4CCC(N)C4)cn3)nc12 (stereo not shown) [Compound 52],< 10,10 to 100,–,–
CC(C)Nc1nc(C(F)F)cc2cnc(Nc3ccc(N4CCN(C)CC4)cn3)nc12 [Compound 42],< 10,10 to 100,–,–
COC(C)c1cc2cnc(Nc3ccc(CN4CCNCC4)cn3)nc2c(NCC2CCCOC2)n1 (stereo not shown) [Compound 400],< 10,≥ 100,–,–
CCCNc1nc(C(C)=O)cc2cnc(Nc3ccc(N4CCNCC4)cn3)nc12 [Compound 1028],–,–,10 to 100,≥ 100
C[C@@H](O)c1cc2cnc(Nc3ccc4c(n3)CCN(CCO)C4)nc2c(N[C@H]2CCCOC2)n1 [Compound 1125],–,–,< 10,≥ 100
CC(=O)N(C)Cc1ccc(Nc2ncc3cc(C(F)F)nc(NC(C)C)c3n2)nc1 [Compound 139],< 10,10 to 100,–,–
CC(O)c1cc2cnc(Nc3ccc(N4CCNCC4)cn3)nc2c(N(C)C2CCCC2)n1 (stereo not shown) [Compound 10],< 10,≥ 100,–,–
CCNc1nc(C(F)F)cc2cnc(Nc3ccc(CN4CCC(C(=O)O)CC4)cn3)nc12 [Compound 1096],–,–,10 to 100,≥ 100
C[C@@H](O)c1cc2cnc(Nc3ccc(OCCN(C)C)cn3)nc2c(NC2CCC(C)(C)OC2)n1 (stereo partly shown) [Compound 600],< 10,≥ 100,–,–
CCO[C@H](C)c1cc2cnc(Nc3ccc(N4CCNCC4)nn3)nc2c(NC(C)C)n1 [Compound 310],< 10,≥ 100,–,–
CC(O)c1cc2cnc(Nc3ccc(OC4CCNCC4F)cn3)nc2c(NC2CCCOC2)n1 (stereo not shown) [Compound 645],–,–,< 10,≥ 100
